{
  "source": "paper PMC12153356",
  "about": "“An antisense oligomer conjugate with unpredicted bactericidal activity against Fusobacterium nucleatum” (mBio, 2025)",
  "key": {"[1]": {"tested_on": "F. nucleatum subsp. nucleatum ATCC 23726 (FNN23)", "test": "Determination of bactericidal effect by CFU spot assay", "type": "cell-based, Fusobacterium nucleatum subsp. nucleatum ATCC 23726", "details": "10 µM, 1 × 10^5 CFU/mL in MHB, spotting on BHI agar plates, up to 96 h, three replicates", "procedure": "To investigate the bactericidal effects of PNAs an o.n. culture of FNN23 grown in ColB was diluted 1:50 in fresh ColB and grown to OD600 0.5. This culture was then diluted 1:2,500 to 1 × 10^5 CFU/mL in MHB, and 190 µL of the culture was dispensed into a transparent 96-well plate (Nunc, Thermo Fischer Scientific) together with 10 µL of respective 20× PNA stock or water and incubated at 37°C with 237 cpm shaking every 20 min. At the respective time points, 100 µL was taken out of the well, a 1:10 serial dilution series was prepared with 900 µL anoxic 1× PBS, and 5 µL of each dilution was spotted on BHI plates for CFU determination. Plates were incubated for 3 days at 37°C before taking out the plates of the anaerobic chamber for CFU counting."}, "HeLa cells": {"tested_on": "HeLa cells", "details": "cited from earlier work"}, "[2]": {"tested_on": "F. nucleatum subsp. nucleatum ATCC 23726 (FNN23)", "test": "MIC determination and growth inhibition assay (broth microdilution, OD600 over time)", "type": "cell-based, Fusobacterium nucleatum subsp. nucleatum ATCC 23726", "details": "MHB; for Growth inhibition of FNN23: 10 µM compound, 1 × 10^5 CFU/mL, growth inhibition = no visible growth (OD600 <0.01) after 120 h", "procedure": "To test CPP-PNA conjugates for growth inhibition, we diluted mid-exponential phase cultures of FNN23 to 1 × 10^5 colony forming units (CFUs) per milliliter in Mueller-Hinton Broth (MHB) and incubated the diluted bacteria with 10 µM of either (KFF)3K- or (RXR)4XB- conjugated PNAs targeting acpP, ftsZ or gyrA. Growth was monitored over time by OD600 measurements, with growth inhibition defined as no visible growth (OD600 <0.01) after 120 h. […] Based on these findings, we conclude that CPP-PNAs targeting fusobacterial mRNAs are not effective in antisense inhibition.\n(§1) The following fusobacterial strains were used in this study: Fusobacterium nucleatum subsp. nucleatum ATCC 23726 (FNN23) acquired from the American Type Culture Collection (ATCC), F. nucleatum subsp. nucleatum ATCC 25586 (FNN25), F. nucleatum subsp. vincentii ATCC 49256 (FNV), and F. nucleatum subsp. polymorphum ATCC 10953 (FNP) acquired from the German Collection of Microorganisms and Cell Culture (DSMZ), F. nucleatum subsp. animalis 7_1 (FNA) and F. periodonticum 2_1_31 (FPE) both received as a kind gift from E. Allen-Vercoe (University of Guelph, Canada). All strains were routinely grown at 37°C in 80:10:10 (N2:H2:CO2) anaerobic conditions on 2% agar supplemented BHI plates (BHI, 1% [wt:vol] dried yeast extract, 1% [vol:vol] 50% sterile-filtered glucose solution, 5 µg/mL of hemin; 1% [vol:vol] fetal bovine serum) from frozen 20% glycerol stocks kept at −80°C. For liquid growth, the strains were cultured in Columbia broth (ColB; BD Difco). Precultures were prepared 24 h before inoculating the working culture at a 1:50 dilution in fresh ColB until OD600 0.5 was reached. Cultures were then diluted in non-cation adjusted Mueller-Hinton Broth (MHB, BD Difco) to the desired CFU/mL number. P. gingivalis (DSM 20709) was purchased from DSMZ and grown at 37°C in anaerobic conditions as mentioned above on 2% agar supplemented BHI+ plates (BHI, 1% [wt:vol] dried yeast extract, 1% [vol:vol] 50% sterile filtered glucose solution, 5 µg/ml of hemin; 10% [vol:vol] fetal bovine serum; and 1 µg/mL vitamin K3) for 4 days. For liquid growth, P. gingivalis was cultured in BHI+ medium (BHI, BD Difco supplemented with 1% [vol:vol] 50% sterile-filtered glucose solution, 5 µg/mL of hemin; 1% [vol:vol] fetal bovine serum, and 1 µg/mL vitamin K3). Precultures were prepared 24 h before inoculating the working culture at a 1:20 dilution in BHI+ until OD600 of 0.5 was reached. All plates, media, buffers, and reagents were brought into the anaerobic chamber the day before usage to ensure full oxygen depletion.\nTo determine the MIC value, broth microdilutions were performed according to the standard protocol with some modifications ([119]). An overnight bacterial culture was diluted in a fresh ColB medium and grown to OD600 0.5 (mid-exponential phase). […] To determine the growth inhibition of P. gingivalis, an o.n. culture grown in BHI+ was diluted 1:1,500 in MHB to obtain 1 × 10^5 CFU/mL. E. coli K12, E. coli Nissle 1917, and S. enterica o.n. cultures grown in MHB were diluted 1:1,800 in fresh MHB to obtain 1 × 10^5 CFU/mL. In total, 190 µL of diluted bacterial cultures were pipetted into a transparent 96-well plate (Nunc, Thermo Fischer Scientific) together with 10 µL of respective 20× CPP or CPP-PNA stock or water as control. Bacterial growth was monitored by measuring OD600 every 20 min with constant shaking in a plate reader (Biotek) under the normal atmospheric environment or positioned in the anaerobic chamber with double orbital shaking every 20 min prior to each measurement with 237 cpm at 37°C for 120 h."}, "[3]": {"tested_on": "F. periodonticum 2_1_31 (FPE)", "test": "Growth inhibition assay", "type": "cell-based, Fusobacterium periodonticum 2_1_31", "details": "10 µM, MHB, 1 × 10^5 CFU/mL input, three replicates; listed as sequence variant 1", "source_text": "as §1, with “For liquid growth, P. gingivalis was cultured in BHI+ medium (BHI, BD Difco supplemented with 1% [vol:vol] 50% sterile-filtered glucose solution, 5 µg/mL of hemin; 1% [vol:vol] fetal bovine serum, and 1 µg/mL vitamin K3). Precultures were prepared 24 h before inoculating the working culture at a 1:20 dilution in BHI+ until OD600 of 0.5 was reached. All plates, media, buffers, and reagents were brought into the anaerobic chamber the day before usage to ensure full oxygen depletion.” left out\n(§2) To determine the MIC value, broth microdilutions were performed according to the standard protocol with some modifications ([119]). […] Bacterial growth was monitored by measuring OD600 every 20 min with constant shaking in a plate reader (Biotek) under the normal atmospheric environment or positioned in the anaerobic chamber with double orbital shaking every 20 min prior to each measurement with 237 cpm at 37°C for 120 h."}, "[4]": {"tested_on": "F. nucleatum subsp. nucleatum ATCC 25586 (FNN25)", "test": "Growth inhibition assay", "type": "cell-based, Fusobacterium nucleatum subsp. nucleatum ATCC 25586", "details": "10 µM, MHB, 1 × 10^5 CFU/mL input, three replicates; listed as sequence variant 1", "source_text": "as §1, with “For liquid growth, P. gingivalis was cultured in BHI+ medium (BHI, BD Difco supplemented with 1% [vol:vol] 50% sterile-filtered glucose solution, 5 µg/mL of hemin; 1% [vol:vol] fetal bovine serum, and 1 µg/mL vitamin K3). Precultures were prepared 24 h before inoculating the working culture at a 1:20 dilution in BHI+ until OD600 of 0.5 was reached. All plates, media, buffers, and reagents were brought into the anaerobic chamber the day before usage to ensure full oxygen depletion.” left out\nas §2"}, "[5]": {"tested_on": "F. nucleatum subsp. polymorphum ATCC 10953 (FNP)", "test": "Growth inhibition assay", "type": "cell-based, Fusobacterium nucleatum subsp. polymorphum ATCC 10953", "details": "10 µM, MHB, 1 × 10^5 CFU/mL input, three replicates; listed as sequence variant 1", "source_text": "as §1, with “For liquid growth, P. gingivalis was cultured in BHI+ medium (BHI, BD Difco supplemented with 1% [vol:vol] 50% sterile-filtered glucose solution, 5 µg/mL of hemin; 1% [vol:vol] fetal bovine serum, and 1 µg/mL vitamin K3). Precultures were prepared 24 h before inoculating the working culture at a 1:20 dilution in BHI+ until OD600 of 0.5 was reached. All plates, media, buffers, and reagents were brought into the anaerobic chamber the day before usage to ensure full oxygen depletion.” left out\nas §2"}, "[6]": {"tested_on": "F. nucleatum subsp. animalis 7_1 (FNA)", "test": "Growth inhibition assay", "type": "cell-based, Fusobacterium nucleatum subsp. animalis 7_1", "details": "10 µM, MHB, 1 × 10^5 CFU/mL input, three replicates; listed as sequence variant 1", "source_text": "as §1, with “For liquid growth, P. gingivalis was cultured in BHI+ medium (BHI, BD Difco supplemented with 1% [vol:vol] 50% sterile-filtered glucose solution, 5 µg/mL of hemin; 1% [vol:vol] fetal bovine serum, and 1 µg/mL vitamin K3). Precultures were prepared 24 h before inoculating the working culture at a 1:20 dilution in BHI+ until OD600 of 0.5 was reached. All plates, media, buffers, and reagents were brought into the anaerobic chamber the day before usage to ensure full oxygen depletion.” left out\nas §2"}},
  "note": "Square brackets hold non-standard residues; d marks the D form. Peptide text beside a SMILES is read from it. Ahx = NCCCCCC(=O)O; βAla = NCCC(=O)O",
  "data": [
    {"compound": "N=C(N)NCCC[C@H](NC(=O)CCCCCNC(=O)[C@H](CCCNC(=N)N)NC(=O)[C@H](CCCNC(=N)N)NC(=O)CCCCCNC(=O)[C@H](CCCNC(=N)N)NC(=O)[C@H](CCCNC(=N)N)NC(=O)CCCCCNC(=O)[C@H](CCCNC(=N)N)NC(=O)[C@H](CCCNC(=N)N)NC(=O)CCCCCNC(=O)[C@@H](N)CCCNC(=N)N)C(=O)NCCCCCC(=O)NCCC(=O)O", "note": "[(RXR)4XB, reference compound] (H-R[Ahx]RR[Ahx]RR[Ahx]RR[Ahx]R[Ahx][βAla]-OH; N-terminus and C-terminus assumed)", "values": [
      {"measurement": "Bactericidal effect (viable cells, CFU) on FNN23", "setting": "[1]", "result": "no bactericidal effect"}
    ]},
    {"compound": "CC[C@H](C)[C@H](NC(=O)[C@H](CCCNC(=N)N)NC(=O)[C@H](CCCNC(=N)N)NC(=O)[C@H](CC(C)C)NC(=O)[C@H](Cc1c[nH]c2ccccc12)NC(=O)[C@H](C)NC(=O)[C@H](CCCCN)NC(=O)[C@@H](NC(=O)[C@H](CCCNC(=N)N)NC(=O)[C@H](CCCNC(=N)N)NC(=O)[C@H](CC(C)C)NC(=O)[C@@H](N)Cc1c[nH]c2ccccc12)[C@@H](C)CC)C(=O)N[C@@H](CCCCN)C(=O)N[C@@H](C)C(=O)N[C@@H](CC(C)C)C(=O)N[C@@H](CC(N)=O)C(=O)N[C@@H](CCCNC(=N)N)C(=O)N[C@@H](CCC(N)=O)C(=O)N[C@@H](CC(C)C)C(=O)NCC(=O)N[C@H](C(=O)N[C@@H](C)C(=O)N[C@@H](C)C(=O)O)C(C)C", "note": "[Seq471]", "values": [
      {"measurement": "Cytotoxicity in HeLa cells", "setting": "HeLa cells", "result": "without notable cytotoxicity"}
    ]},
    {"compound": "GACATAATTGT [PNA79, FUS79 without the (RXR)4XB module, PNA …]", "values": [
      {"measurement": "Growth inhibition of FNN23", "setting": "[2]", "result": "only the original FUS79 as well as sequence variant 1 conjugated to full-length (RXR)4XB inhibited the growth"}
    ]},
    {"compound": "KFFKFFKFFK (GACATAATTGT; all phosphorodiamidate morpholino (PMO); (KFF)3K peptide conjugated via azide-cyclooctyne click, attachment end not given here) [(KFF)3K-PMO79, (KFF)3K conjugated to 11mer PMO …]", "values": [
      {"measurement": "Growth inhibition of FNN23", "setting": "[2]", "result": "did not inhibit the growth"}
    ]},
    {"compound": "KFFKFFKFFK [(KFF)3K-gyrA_11mer_2, (KFF)3K conjugated to 11mer PNA … targeting gyrA]", "values": [
      {"measurement": "Growth delay of FNN23", "setting": "[2]; 10 µM (KFF)3K-PNA, 1 × 10^5 CFU/mL (Fig. 2C)", "result": "~ 40 h"},
      {"measurement": "Growth retardation of FNN23 at higher concentrations", "setting": "[2]; concentrations higher than 10 µM, 1 x 10^5 CFU per ml (Fig. S1C)", "result": "did not lead to further growth retardation"}
    ]},
    {"compound": "Polymyxin B [reference compound]", "values": [
      {"measurement": "Bactericidal effect (viable cells, CFU) on FNN23", "setting": "[1]", "result": "fully diminished CFUs after 96 h"}
    ]},
    {"compound": "RXRRXRRXRRXRXB [(RXR)4XB-ftsZ, (RXR)4XB conjugated to 10mer PNA … targeting ftsZ]", "values": [
      {"measurement": "Bactericidal effect (viable cells, CFU) on FNN23", "setting": "[1]; listed as (RXR)4XB-PNA targeting ftsZ", "result": "could not observe a CFU reduction"}
    ]},
    {"compound": "RXRRXRRXRRXRXB [(RXR)4XB-non-targeting-PMO, (RXR)4XB conjugated to non-targeting 11mer PMO …]", "values": [
      {"measurement": "Growth inhibition of FNN23", "setting": "[2]; listed as (RXR)4XB-conjugated non-targeting PMO control", "result": "did not inhibit the growth"}
    ]},
    {"compound": "RXRRXRRXRRXRXB [(RXR)4XB-trpB, (RXR)4XB conjugated to 11mer PNA … complementary to trpB TIR]", "values": [
      {"measurement": "Growth inhibition of FNN23", "setting": "[2]", "result": "did not result in growth impairment"}
    ]},
    {"compound": "RXRRXRRXRRXRXB [FUS79 variant 1]", "values": [
      {"measurement": "Growth inhibition of FNN23", "setting": "[2]; listed as sequence variant 1", "result": "inhibited the growth"},
      {"measurement": "Growth inhibition of FPE", "setting": "[3]", "result": "effective in strains susceptible to FUS79"},
      {"measurement": "Growth inhibition of FNN25", "setting": "[4]", "result": "effective in strains susceptible to FUS79"},
      {"measurement": "Growth inhibition of FNP", "setting": "[5]", "result": "effective in strains susceptible to FUS79"},
      {"measurement": "Growth inhibition of FNA", "setting": "[6]", "result": "effective in strains susceptible to FUS79"}
    ]},
    {"compound": "RXRRXRRXRXB [(RXR)3XB-PNA79, PNA … with shortened CPP module RXRRXRRXRXB]", "values": [
      {"measurement": "Growth inhibition of FNN23", "setting": "[2]", "result": "only the original FUS79 as well as sequence variant 1 conjugated to full-length (RXR)4XB inhibited the growth"}
    ]}
  ]
}
